The record followed here is ChEMBL document CHEMBL5550126, “Identification of naphthalimide-derivatives as novel PBD-targeted polo-like kinase 1 inhibitors with efficacy in drug-resistant lung cancer cells” (Eur J Med Chem, 2024).

A value given as a limit tells only on which side of the number the result lay.

Series [1] relates to SK-OV-3. The experiment in a line: Anticancer activity against human SK-OV-3 cells assessed as inhibition of cell growth incubated for 48 hrs by crystal violet staining based analysis. The class given is functional. The note with it: SK-OV-3, 48 h.
Series [2] concerns MCF7. The series can be described thus: Anticancer activity against human MCF7 cells assessed as inhibition of cell growth incubated for 48 hrs by crystal violet staining based analysis. The class given is functional. The note with it: MCF7, 48 h.
Series [3] addresses Serine/threonine-protein kinase PLK1 (Homo sapiens, UniProt P53350). The experiment in a line: Binding affinity to recombinant PLK1 (unknown origin) assessed as dissociation constant by SPR analysis.
The subject of series [4] is T-24. The experiment in a line: Anticancer activity against human T24 cells assessed as inhibition of cell growth incubated for 48 hrs by crystal violet staining based analysis. The class given is functional. The note with it: T-24, 48 h.
Series [5] relates to MGC-803. The series can be described thus: Anticancer activity against human MGC-803 cells assessed as inhibition of cell growth incubated for 48 hrs by crystal violet staining based analysis. The class given is functional. The note with it: MGC-803, 48 h.
The test system of series [6] is NCI-H460. The experiment in a line: Anticancer activity against human NCI-H460 cells assessed as inhibition of cell growth incubated for 48 hrs by crystal violet staining based analysis. The class given is functional. The note with it: NCI-H460, 48 h.
The subject of series [7] is A549/CDDP. The experiment in a line: Anticancer activity against human A549/DDP cells assessed as inhibition of cell growth incubated for 48 hrs by crystal violet staining based analysis. It is filed as functional.
Series [8] is described as follows: Octanol-water partition coefficient, logP of the compound. The class given is physicochemical.

Sequence of Serine/threonine-protein kinase PLK1 (P53350 whole entry): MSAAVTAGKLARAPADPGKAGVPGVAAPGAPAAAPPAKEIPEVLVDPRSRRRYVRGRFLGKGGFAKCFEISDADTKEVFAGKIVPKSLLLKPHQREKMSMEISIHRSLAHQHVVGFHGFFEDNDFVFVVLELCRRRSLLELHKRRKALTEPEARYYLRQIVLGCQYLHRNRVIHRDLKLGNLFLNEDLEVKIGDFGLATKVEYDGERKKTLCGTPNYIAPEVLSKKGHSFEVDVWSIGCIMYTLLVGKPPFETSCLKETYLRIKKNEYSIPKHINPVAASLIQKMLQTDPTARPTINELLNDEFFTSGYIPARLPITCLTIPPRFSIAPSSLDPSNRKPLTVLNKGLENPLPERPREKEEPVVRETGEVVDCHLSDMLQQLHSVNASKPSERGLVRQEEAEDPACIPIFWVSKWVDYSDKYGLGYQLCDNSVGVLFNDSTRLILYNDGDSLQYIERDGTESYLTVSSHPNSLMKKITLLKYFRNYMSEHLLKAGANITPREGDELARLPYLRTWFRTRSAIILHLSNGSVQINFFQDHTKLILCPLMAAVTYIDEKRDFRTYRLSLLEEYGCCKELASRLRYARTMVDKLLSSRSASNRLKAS

Turning to `CN(C)CCN1C(=O)c2cccc3c(S(=O)(=O)NCc4ccccc4)ccc(c23)C1=O`, the IC50 in series [1] turned out to be 1.8 µM; in series [2], 14.7 µM; in series [4] it was 7.11 µM; in series [5] it was 3.71 µM; in series [6] it was 11.5 µM. Besides, the dissociation constant (Kd) in series [3] came out at 16.8 µM.
Turning to `Cc1ccc(CNS(=O)(=O)c2ccc3c4c(cccc24)C(=O)N(CCN2CCCCC2)C3=O)cc1`, the 50% inhibitory concentration (IC50) in series [1] came to 10.7 µM; in series [2], 4.55 µM; in series [4] it was 9.09 µM; in series [5] it was 7.29 µM; in series [6], 4.8 µM. For the same compound, the equilibrium dissociation constant (Kd) in series [3] was 20.9 µM.
In the case of `O=C1c2cccc3c(S(=O)(=O)NCc4ccccc4)ccc(c23)C(=O)N1CCN1CCCC1`, the IC50 in series [1] amounted to 7.05 µM; in series [2] it was 10.3 µM; in series [4], 4.07 µM; in series [5], 4.96 µM; in series [6], 17.6 µM. Also, the Kd in series [3] is 19.2 µM.
As to `O=C1c2cccc3c(S(=O)(=O)NCc4ccc(C(F)(F)F)cc4)ccc(c23)C(=O)N1CCN1CCCCC1`, the half-maximal inhibitory concentration (IC50) turned out to be 9.21 µM in series [1]; 16.9 µM in series [2]; 8.19 µM in series [4]; 5.56 µM in series [5]; 4.29 µM in series [6]. Moreover, the Kd in series [3] came to 4.24 µM.
Turning to `O=C1c2cccc3c(S(=O)(=O)NCc4ccc(C(F)(F)F)cc4)ccc(c23)C(=O)N1CCN1CCCC1`, the IC50 in series [1] amounted to 4.22 µM; in series [2], 5.01 µM; in series [4], 4.99 µM; in series [5] it was 3.38 µM; in series [6], 4.77 µM. The Kd in series [3] is 7.36 µM.
With `O=C1c2cccc3c(S(=O)(=O)NCc4ccc(F)cc4)ccc(c23)C(=O)N1CCN1CCCCC1`, the IC50 in series [1] came out at 8.53 µM; in series [2] it was 9.62 µM; in series [4] it was 1.76 µM; in series [5] it was 5.43 µM; in series [6] it was 4.28 µM. Besides, the dissociation constant (Kd) in series [3] was 3.95 µM.
On to `O=C1c2cccc3c(S(=O)(=O)NCc4ccccc4)ccc(c23)C(=O)N1CCN1CCCCC1`, for which the concentration for half-maximal inhibition (IC50) in series [1] worked out at 12 µM; in series [2], 15.4 µM; in series [4] it was 2.75 µM; in series [5], 5.16 µM; in series [6], 8.17 µM. Moreover, the equilibrium dissociation constant (Kd) in series [3] was 2.03 µM.
For `Cc1ccc(CNS(=O)(=O)c2ccc3c4c(cccc24)C(=O)N(CCN2CCCC2)C3=O)cc1`, the 50% inhibitory concentration (IC50) in series [1] was 3.98 µM; in series [2], 6.75 µM; in series [4] it was 5.53 µM; in series [5], 4.17 µM; in series [6], 8.25 µM. Also, in series [3], the Kd was 17.3 µM.
Consider `CC[C@@H]1C(=O)N(C)c2cnc(Nc3ccc(C(=O)N[C@H]4CC[C@H](N5CCN(CC6CC6)CC5)CC4)cc3OC)nc2N1C(C)C` [VOLASERTIB], for which the Kd in series [3] stood at 0.9 µM.
In the case of `Cc1ccc(CNS(=O)(=O)c2ccc3c4c(cccc24)C(=O)N(CCN(C)C)C3=O)cc1`, the IC50 in series [1] was 6.64 µM; in series [2] it was 10.5 µM; in series [4] it was 5.89 µM; in series [5], 7.4 µM; in series [6], 12.5 µM. The Kd in series [3] was 14.2 µM.
As for `CN(C)CCN1C(=O)c2cccc3c(S(=O)(=O)NCc4ccccc4F)ccc(c23)C1=O`, the IC50 was 2.95 µM in series [1]; 5.38 µM in series [2]; 3.86 µM in series [4]; 5.46 µM in series [5]; 10.8 µM in series [6]. In series [3], the Kd was found to be 2.79 µM.
As for `CN(C)CCN1C(=O)c2cccc3c(S(=O)(=O)NCc4ccc(C(F)(F)F)cc4)ccc(c23)C1=O`, the IC50 in series [1] was found to be 7.42 µM; in series [2], 6.24 µM; in series [4], 2.57 µM; in series [5] it was 5.95 µM; in series [6], 8.28 µM. For the same compound, the equilibrium dissociation constant (Kd) in series [3] was found to be 5.26 µM.
On to `CN(C)CCN1C(=O)c2cccc3c(S(=O)(=O)NCc4cccc(F)c4)ccc(c23)C1=O`, for which the half-inhibitory concentration (IC50) came out at 3.11 µM in series [1]; 7.29 µM in series [2]; 2.97 µM in series [4]; 4.98 µM in series [5]; 9.77 µM in series [6]. Further, the equilibrium dissociation constant (Kd) in series [3] came out at 17.5 µM.
For the compound `COc1ccc(CNS(=O)(=O)c2ccc3c4c(cccc24)C(=O)N(CCN(C)C)C3=O)cc1`, the 50% inhibitory concentration (IC50) amounted to 4.99 µM in series [1]; 10.2 µM in series [2]; 5.31 µM in series [4]; 6.44 µM in series [5]; 9.37 µM in series [6]. Besides, the dissociation constant (Kd) in series [3] amounted to 8.06 µM.
Regarding `COc1ccc(CNS(=O)(=O)c2ccc3c4c(cccc24)C(=O)N(CCN2CCCC2)C3=O)cc1`, the IC50 in series [1] was found to be 5.19 µM; in series [2] it was 10.3 µM; in series [4], 8.6 µM; in series [5], 4.04 µM; in series [6], 5.37 µM. In addition, the Kd in series [3] stood at 16.8 µM.
Take `COc1ccc(CNS(=O)(=O)c2ccc3c4c(cccc24)C(=O)N(CCN2CCCCC2)C3=O)cc1`: the IC50 in series [1] turned out to be 20.5 µM; in series [2] it was 18.2 µM; in series [4] it was 4.51 µM; in series [5], 8.1 µM; in series [6] it was 5 µM. For the same compound, in series [3], the dissociation constant Kd was 20.1 µM.
As for `O=C1c2cccc3c(S(=O)(=O)NCc4ccc(F)cc4)ccc(c23)C(=O)N1CCN1CCCC1`, the IC50 in series [1] was found to be 4.5 µM; in series [2] it was 3.29 µM; in series [4] it was 2.51 µM; in series [5] it was 3.41 µM; in series [6] it was 2.8 µM. The Kd in series [3] was found to be 2.15 µM.
With `O=C1c2cccc3c(Sc4ccc([N+](=O)[O-])cc4)ccc(c23)C(=O)N1CCN1CCCC1`, the concentration for half-maximal inhibition (IC50) is 12.2 µM in series [1]; more than 20 µM in series [7]; 10.8 µM in series [2]; 9.23 µM in series [4]; 11.2 µM in series [5]; 15.6 µM in series [6]. In series [3], the dissociation constant Kd amounted to 15.4 µM. The lipophilicity (logP) in series [8] amounted to 4.26.
